Experimental data published in patent US10988507B2, “Immunomodulators” (Bristol-Myers Squibb Company, priority 2016, dated 2021).
Where a SMILES comes first, the peptide text is derived from it. Bridges are numbered along the chain shown (N, C = ends). [ ]: non-standard residue; d: D form. The star is where a group is joined. Palmitoyl = CCCCCCCCCCCCCCCC(=O)*; Hyp = O=C(O)[C@@H]1C[C@@H](O)CN1; Myristoyl = CCCCCCCCCCCCCC(=O)*; NMeNle = CCCC[C@H](NC)C(=O)O; NMeA = CN[C@@H](C)C(=O)O

How the values were obtained:
[1] = molecular target: PD-1-Ig binding to PD-L1-TVMV-His (PD-L1-His) (Homo sapiens (Human), UniProt Q9NZQ7); assay: PD-1/PD-L1 Homogenous Time-Resolved Fluorescence (HTRF) binding assay; details: PD-1-Ig (20 nM)/PD-L1-His (10 nM) binding assay
Text: The ability of the macrocyclic peptides of the present disclosure to bind to PD-L1 was investigated using a PD-1/PD-L1 Homogenous Time-Resolved Fluorescence (HTRF) binding assay.
Homogenous Time-Resolved Fluorescence (HTRF) Assays of Binding of Soluble PD-1 to Soluble PD-L1. Soluble PD-1 and soluble PD-L1 refers to proteins with carboxyl-end truncations that remove the transmembrane-spanning regions and are fused to heterologous sequences, specifically the Fc portion of the human immunoglobuling G sequence (Ig) or the hexahistidine epitope tag (His). All binding studies were performed in an HTRF assay buffer consisting of dPBS supplemented with 0.1% (w/v) bovine serum albumin and 0.05% (v/v) Tween-20. For the PD-1-Ig/PD-L1-His binding assay, inhibitors were pre-incubated with PD-L1-His (10 nM final) for 15 m in 4 μl of assay buffer, followed by addition of PD-1-Ig (20 nM final) in 1 μl of assay buffer and further incubation for 15 m. PD-L1 fusion proteins from either human, cynomologous macaques, mouse, or other species were used. HTRF detection was achieved using europium crypate-labeled anti-Ig monoclonal antibody (1 nM final) and allophycocyanin (APC) labeled anti-His monoclonal antibody (20 nM final). Antibodies were diluted in HTRF detection buffer and 5 μl was dispensed on top of binding reaction. […]

[2] = oral administration, extensive first-pass metabolism in the liver; cited from earlier work

PD-1-Ig binding to PD-L1-TVMV-His (PD-L1-His), sequence (Q9NZQ7 other isoform, or with tags, fused parts or gaps): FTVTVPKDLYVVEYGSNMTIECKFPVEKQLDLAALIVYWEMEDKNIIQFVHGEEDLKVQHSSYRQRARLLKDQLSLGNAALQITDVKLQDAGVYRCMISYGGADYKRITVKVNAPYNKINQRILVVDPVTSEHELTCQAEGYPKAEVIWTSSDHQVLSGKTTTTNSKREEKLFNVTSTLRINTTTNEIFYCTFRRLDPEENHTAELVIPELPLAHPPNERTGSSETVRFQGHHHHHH

Row | Structure (SMILES) | IC50 [1] | bioavailability [2]
1 | CCCCCCCCCCCCCC(=O)NCCCC[C@@H]1NC(=O)[C@H](CCCC)N(C)C(=O)[C@H](CCCC)N(C)C(=O)[C@H](Cc2c[nH]c3ccccc23)NC(=O)[C@H](CO)NC(=O)[C@H](Cc2c[nH]c3ccccc23)NC(=O)[C@@H]2C[C@@H](O)CN2C(=O)[C@H](CC(C)C)NC(=O)[C@H](Cc2cnc[nH]2)NC(=O)[C@@H]2CCCN2C(=O)[C@H](CC(=O)O)NC(=O)[C@H](C)N(C)C(=O)[C@H](Cc2ccc(O)cc2)NC(=O)CSC[C@@H](C(=O)NCC(N)=O)NC1=O [Example 11059] ({CH2CO}-Y[NMeA]DPHL[Hyp]WSW[NMeNle][NMeNle]K(Myristoyl)CG-NH2; thioether N-14) | 690 nM | –
2 | CCCCCCCCCCCCCCCC(=O)NCCCC[C@@H]1NC(=O)[C@H](CCCC)N(C)C(=O)[C@H](CCCC)N(C)C(=O)[C@H](Cc2c[nH]c3ccccc23)NC(=O)[C@H](CO)NC(=O)[C@H](Cc2c[nH]c3ccccc23)NC(=O)[C@@H]2C[C@@H](O)CN2C(=O)[C@H](CC(C)C)NC(=O)[C@H](Cc2cnc[nH]2)NC(=O)[C@@H]2CCCN2C(=O)[C@H](CC(=O)O)NC(=O)[C@H](C)N(C)C(=O)[C@H](Cc2ccc(O)cc2)NC(=O)CSC[C@@H](C(=O)NCC(N)=O)NC1=O [Example 11058] ({CH2CO}-Y[NMeA]DPHL[Hyp]WSW[NMeNle][NMeNle]K(Palmitoyl)CG-NH2; thioether N-14) | 1930 nM | –
3 | CCCC1O[C@@H]2C[C@H]3[C@@H]4CCC5=CC(=O)C=C[C@]5(C)[C@H]4[C@@H](O)C[C@]3(C)[C@]2(C(=O)CO)O1 (stereo partly drawn) [budesonide] | – | about 10%
